Test results from PubChem BioAssay AID1189 (EPA DSSTox, 2008).
Calls of active or inactive are those of the source.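 The calls were made as follows: active = a tumor-causing dose value with its tumor site reported for any sex and species group of a rodent or other animal cancer study; inconclusive = only studies judged inadequate by the national testing program; inactive = tested in at least one study, none positive.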

assay: DSSTox (CPDBAS) Carcinogenic Potency Database Summary SingleCellCall Results; settings: animal chronic carcinogenicity bioassays, CPDB summary call
In short: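 Categorical carcinogenicity call compiled from published chronic rodent and other animal cancer bioassays; based on the most positive result across experiments for each sex-species, assigned on minimal evidence for or against activity.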

SMILES | outcome
Cc1noc(NS(=O)(=O)c2ccc(N)cc2)c1C | inactive
FC(F)Cl | inactive
O=[As](O)(O)O | inactive
CC1CCC(C(C)C)C(O)C1 (stereo unspecified) | inactive
CC(Oc1cc(Cl)ccc1Cl)C(=O)O (stereo unspecified) | inactive
CCCCCCc1ccc(O)cc1O | inactive
COc1cc(N=Nc2ccccc2)ccc1N | active; inactive
O.[Cd+2].[Cl-].[Cl-] | inactive
O=C1OC(=O)c2ccccc21 | inactive
O=C(OOC(=O)c1ccccc1)c1ccccc1 | inactive
CC(=O)Nc1ccc(S(=O)(=O)O)c2cc(S(=O)(=O)O)c(N=Nc3ccc(N=Nc4ccc(S(=O)(=O)O)cc4)c4ccc(S(=O)(=O)O)cc34)c(O)c12 | inactive; active
COc1cccc2c1cc([N+](=O)[O-])c1c(C(=O)O)cc3c(c12)OCO3 | active; inactive
Nc1ccc(N)c2c1C(=O)c1c(N)ccc(N)c1C2=O | active
Cc1ncc([N+](=O)[O-])n1CCO | active
C=CCNNCC=C | active; inactive
CC(=O)N(O)c1ccc2c(c1)Cc1ccccc1-2 | active; inactive
CCC[C@@H]1O[C@@H]2C[C@H]3[C@@H]4CCC5=CC(=O)C=C[C@]5(C)[C@H]4[C@@H](O)C[C@]3(C)[C@]2(C(=O)CO)O1 | active; inactive
CC(Cl)Cl | inactive; active
C[C@]12CC[C@H](OS(=O)(=O)O)CC1=CC[C@@H]1[C@@H]2CC[C@]2(C)C(=O)CC[C@@H]12 | inactive; active
S=C=NCCc1ccccc1 | inactive; active
O=NN(CCO)CC(O)CO (stereo unspecified) | active
FC(F)=C(F)F | active; inactive
CCN(CC)C(=S)[S-].CCN(CC)C(=S)[S-].[Zn+2] | inactive
COc1cccc2c1C(=O)c1c(O)c3c(c(O)c1C2=O)C[C@@](O)(C(=O)CO)C[C@@H]3O[C@H]1C[C@H](N)[C@H](O)[C@H](C)O1 | inactive; active
C[C@]12CCC(=O)C=C1CC[C@@H]1[C@@H]2[C@@H](O)C[C@@]2(C)[C@H]1CC[C@]2(O)C(=O)CO | inactive

SMILES | outcome
CC[C@H](OC(C)=O)C(C[C@H](C)N(C)C)(c1ccccc1)c1ccccc1 | active
OC(c1ccc(Cl)cc1)(c1ccc(Cl)cc1)C(Cl)(Cl)Cl | active
NNCCO | active; inactive
CC1CN(N=O)C(=O)O1 (stereo unspecified) | active
O=C1NC(c2ccc([N+](=O)[O-])s2)Nc2ccccc21 (stereo unspecified) | active
CNNCc1ccc(C(=O)NC(C)C)cc1 | active
CCOC(=O)CC(SP(=S)(OC)OC)C(=O)OCC (stereo unspecified) | inactive
CC(C)OC(=O)Nc1ccccc1 | inactive; active
O=[Se]=O | inactive
COc1cc2c(c3oc(=O)c4c(c13)CCOC4=O)C1C=COC1O2 (stereo unspecified) | active
CC(=O)Nc1ccc(S(=O)(=O)c2ccc(NC(C)=O)cc2)cc1 | active; inactive
O=C(O)/C=C/c1ccc(O)c(O)c1 | active
CN1[C@@H]2CC(OC(=O)[C@@H](CO)c3ccccc3)C[C@H]1[C@@H]1O[C@@H]12 (stereo partly specified) | inactive
CC(C)Oc1ccccc1OC(=O)N(C)N=O | active
C[C@@H]1CCCCN1N=O | active
NC(=O)N(CCF)N=O | active; inactive
NC(=O)NC1NC(=O)NC1=O (stereo unspecified) | inactive
[Cd+2].[Cl-].[Cl-] | active; inactive
CN(C)C(=O)NC1CC2CC1C1CCCC21 (stereo unspecified) | inactive
ClC1=C(Cl)C(Cl)(Cl)C(Cl)=C1Cl | inactive; active
[O-][Cl+]O | inactive; active
CC1(C)[C@H](C(=O)O[C@H](C#N)c2cccc(Oc3ccccc3)c2)[C@@H]1C=C(Br)Br | inactive
O=S(=O)(O)c1cc(S(=O)(=O)O)c2c(N=Nc3ccc(S(=O)(=O)O)c4ccccc34)c(O)ccc2c1 | active; inactive
ClCOCc1ccc(COCCl)cc1 | active
P | inactive

SMILES | outcome
C=C(C)[C@H]1CC=C(C)C(=O)C1 | inactive; active
N[C@@H](CS)C(=O)O | inactive
CN(C)CCOC(c1ccccc1)c1ccccc1 | inactive
ClC(Cl)Cl | active
CCCCCCCC/C=C\CCCCCCCC(=O)O | inactive
OCCN(CCO)C(=S)S | active
[O]=[Bi] | inactive; active
NC(=O)N(CC(=O)O)N=O | active; inactive
O=CNNc1nc(-c2ccco2)cs1 | inactive
FCC(F)(F)F | active
CC(=O)OC/C=C(C)/C=C/C=C(C)/C=C/C1=C(C)CCCC1(C)C | active; inactive
CCC1(CC)C(=O)N=C(O)NC1=O | active; inactive
c1ccccc1 | active
O=NN1CCNCC1 | active; inactive
COC1=CC(=O)C[C@@H](C)[C@]12Oc1c(Cl)c(OC)cc(OC)c1C2=O | active
C#C[C@@]1(O)CC[C@H]2[C@@H]3CCC4=CCCC[C@@H]4[C@H]3CC[C@@]21C | active
O=C1OC(c2ccc(O)cc2)(c2ccc(O)cc2)c2ccccc21 | active
Nc1ccc(N=Nc2ccccc2)c(N)n1 | active
CNC(=O)O/N=C/C(C)(C)SC | inactive
CCOP(=O)=O.CCOP(=O)=O.CCOP(=O)=O.[Al+3] | active; inactive
C[C@H](CCc1ccccc1)NC[C@H](O)c1ccc(O)c(C(N)=O)c1 | inactive
O=c1cc[nH]c(=O)[nH]1 | active; inactive
CC1(C)S[C@@H]2[C@H](NC(=O)COc3ccccc3)C(=O)N2[C@H]1C(=O)O | inactive
O=C1c2ccccc2C(=O)c2ccccc21 | inactive
CN1C(=O)C[C@@H](C(=O)N[C@@H](Cc2cnc[nH]2)C(=O)N2CCC[C@H]2C(N)=O)NC1=O | inactive; active

SMILES | outcome
C=CCN(N)CC=C | active
CC1(C)[C@@H](O)CC[C@]2(C)[C@H]3C(=O)C=C4[C@@H]5C[C@@](C)(C(=O)O)CC[C@]5(C)CC[C@@]4(C)[C@]3(C)CC[C@@H]12 | inactive
CC(I)C1OCC(CO)O1 (stereo unspecified) | active
Cc1cc(O)c(C(C)(C)C)cc1Sc1cc(C(C)(C)C)c(O)cc1C | inactive
ClC1=C(Cl)[C@]2(Cl)[C@@H]3[C@H]4C[C@H]([C@@H]5O[C@H]45)[C@@H]3[C@@]1(Cl)C2(Cl)Cl | inactive
[C-]1=CC=CC1.[C-]1=CC=CC1.[Cl-].[Cl-].[Ti+4] | inactive; active
COc1ccc(N)c(OC)c1 | inactive
CC(C)OC(=O)COc1ccc(Cl)cc1Cl | inactive
Cl | inactive
CN(C)C(=O)COC(=O)Cc1ccc(OC(=O)c2ccc(N=C(N)N)cc2)cc1 | inactive
CCN(CC)CCOc1ccc(/C(=C(\Cl)c2ccccc2)c2ccccc2)cc1 | inactive; active
CCCCCCCCS(=O)C(C)Cc1ccc2c(c1)OCO2 (stereo unspecified) | active
Nc1cc(Cl)cc(C(=O)O)c1Cl | active; inactive
C=Cc1ccccc1 | active
CC(=O)Nc1ccc(O)cc1 | active; inactive
COc1ccc([C@@H]2CC(=O)c3c(O)cc(O[C@@H]4O[C@H](CO[C@@H]5O[C@@H](C)[C@H](O)[C@@H](O)[C@H]5O)[C@@H](O)[C@H](O)[C@H]4O)cc3O2)cc1OC | inactive
C/[N+]([O-])=N/CO[C@@H]1O[C@H](CO)[C@@H](O)[C@H](O)[C@H]1O | active
C1OC1C1CO1 (stereo unspecified) | inactive
CC1=C(C)C(=O)C(C(CCCCCC(=O)O)c2ccccc2)=C(C)C1=O (stereo unspecified) | inactive
FC(F)(Cl)C(F)(Cl)Cl | inactive; active
CC(C)(C)c1cc(C(C)(C)C)c(O)c(C(C)(C)C)c1 | inactive
ClCC(Cl)(Cl)Cl | active; inactive
OB(O)O | inactive; active
CC(C(=O)O)c1cccc(C(=O)c2ccccc2)c1 (stereo unspecified) | inactive
CC(C)(C)O | active; inactive

SMILES | outcome
CN(C)C(=O)Cl | active
NC(=O)c1cccnc1 | inactive
COc1cc(S(C)=O)ccc1-c1nc2ccncc2[nH]1 (stereo unspecified) | active
Cc1nnc2n1-c1sc(CCc3ccc(CC(C)C)cc3)cc1C(c1ccccc1Cl)=NC2C (stereo unspecified) | inactive
CC(C)(C)NCC(O)c1cc(O)cc(O)c1 (stereo unspecified) | active
N#Cc1ccc(C2CCCc3cncn32)cc1 (stereo unspecified) | inactive; active
CCn1cc(C(=O)O)c(=O)c2cc3c(cc21)OCO3 | active
Clc1ccc(C(c2ccc(Cl)cc2)C(Cl)(Cl)Cl)cc1 | active
CC(=O)OC(OC(C)=O)c1ccc([N+](=O)[O-])o1 | inactive
COC(N)=O | active
CNC(=O)Oc1cc(C)c(N(C)C)c(C)c1 | inactive
Nc1nc(=S)c2ncn([C@H]3C[C@H](O)[C@@H](CO)O3)c2[nH]1 | active
CC(C)=NNc1ncc(-c2ccc([N+](=O)[O-])o2)s1 | active; inactive
C/C=C\c1ccc(OC)cc1 | inactive
COP(=S)(OC)SCn1nnc2ccccc2c1=O | inactive
CCCCCCCCCc1ccc(OCCOCCO)cc1 | inactive; active
Nc1nc(/C=C/c2ccc([N+](=O)[O-])o2)no1 | active
O=S(=O)(O)c1ccc(N=Nc2cc(S(=O)(=O)O)c3ccccc3c2O)c2ccccc12 | inactive; active
O=[N+]([O-])c1cc(N(CCO)CCO)ccc1NCCO | inactive
CC[C@H]1OC(=O)[C@H](C)[C@@H](O[C@H]2C[C@@](C)(OC)[C@@H](O)[C@H](C)O2)[C@H](C)[C@@H](O[C@@H]2O[C@H](C)C[C@H](N(C)C)[C@H]2O)[C@](C)(O)C[C@@H](C)C(=O)[C@H](C)[C@@H](O)[C@]1(C)O | inactive; active
COc1cc2c(cc1N)oc1ccccc12 | active
